# Assay results taken from PubChem BioAssay (NCI).
#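 Each compound was tested at five concentrations against cells in 96-well plates for 48 hours. GI50: concentration for 50% inhibition of growth. TGI is the concentration that stops growth completely.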
# Tests used:
# Assay in all cases: DTP human tumour cell line panel, 48 h
# [1] = test system: 786-0 renal
# [2] = test system: A498 renal
# [3] = test system: A549 NSCLC
# [4] = test system: ACHN renal
# [5] = test system: BT-549 breast
# [6] = test system: CAKI-1 renal
# [7] = test system: CCRF-CEM leukemia
# [8] = test system: COLO 205 colon
# [9] = test system: DU-145 prostate
# [10] = test system: EKVX NSCLC
# [11] = test system: HCC-2998 colon
# [12] = test system: HCT-116 colon
# [13] = test system: HCT-15 colon
# [14] = test system: HL-60(TB) leukemia
# [15] = test system: HOP-62 NSCLC
# [16] = test system: HOP-92 NSCLC
# [17] = test system: HS 578T breast
# [18] = test system: HT29 colon
# [19] = test system: IGROV1 ovarian
# [20] = test system: K-562 leukemia
# [21] = test system: KM12 colon
# [22] = test system: LOX IMVI melanoma
# [23] = test system: M14 melanoma
# [24] = test system: MALME-3M melanoma
# [25] = test system: MCF7 breast
# [26] = test system: MDA-MB-231 breast
# [27] = test system: MDA-MB-435
# [28] = test system: MOLT-4 leukemia
# [29] = test system: NCI-H226 lung
# [30] = test system: NCI-H23 lung
# [31] = test system: NCI-H460 lung
# [32] = test system: NCI-H522 lung
# [33] = test system: NCI/ADR-RES ovarian
# [34] = test system: OVCAR-3 ovarian
# [35] = test system: OVCAR-4 ovarian
# [36] = test system: OVCAR-5 ovarian
# [37] = test system: OVCAR-8 ovarian
# [38] = test system: PC-3 prostate
# [39] = test system: RPMI-8226 leukemia
# [40] = test system: RXF 393 renal
# [41] = test system: SF-268 CNS
# [42] = test system: SF-295 CNS
# [43] = test system: SF-539 CNS
# [44] = test system: SK-MEL-2 melanoma
# [45] = test system: SK-MEL-28 melanoma
# [46] = test system: SK-MEL-5 melanoma
# [47] = test system: SK-OV-3 ovarian
# [48] = test system: SN12C renal
# [49] = test system: SNB-19 CNS
# [50] = test system: SNB-75 CNS
# [51] = test system: SR leukemia
# [52] = test system: SW-620 colon
# [53] = test system: T-47D breast
# [54] = test system: TK-10 renal
# [55] = test system: U251 CNS
# [56] = test system: UACC-257 melanoma
# [57] = test system: UACC-62 melanoma
# [58] = test system: UO-31 renal
smiles,measurement,setting,value
Cc1cc(Oc2ccccc2)ccc1Nc1ncnc2ccc(-c3cnc(Cl)c(NS(C)(=O)=O)c3)cc12,GI50,[1],2230 nM
same,TGI,[1],14000 nM
same,GI50,[2],1380 nM
same,TGI,[2],3970 nM
same,GI50,[3],2030 nM
same,TGI,[3],6160 nM
same,GI50,[4],2450 nM
same,TGI,[4],15500 nM
same,GI50,[5],1160 nM
same,TGI,[5],4500 nM
same,GI50,[6],1040 nM
same,TGI,[6],5980 nM
same,GI50,[7],1320 nM
same,TGI,[7],15600 nM
same,GI50,[8],1450 nM
same,TGI,[8],3780 nM
same,GI50,[9],2040 nM
same,TGI,[9],12100 nM
same,GI50,[10],1490 nM
same,TGI,[10],10600 nM
same,GI50,[11],1580 nM
same,TGI,[11],3750 nM
same,GI50,[12],2510 nM
same,TGI,[12],13300 nM
same,GI50,[13],1730 nM
same,TGI,[13],10700 nM
same,GI50,[14],1550 nM
same,TGI,[14],13700 nM
same,GI50,[15],2840 nM
same,TGI,[15],18300 nM
same,GI50,[16],246 nM
same,TGI,[16],1380 nM
same,GI50,[17],587 nM
same,TGI,[17],6810 nM
same,GI50,[18],1500 nM
same,TGI,[18],12100 nM
same,GI50,[19],227 nM
same,TGI,[19],1130 nM
same,GI50,[20],3580 nM
same,TGI,[20],> 100000 nM
same,GI50,[21],2170 nM
same,TGI,[21],7430 nM
same,GI50,[22],964 nM
same,TGI,[22],4000 nM
same,GI50,[23],2040 nM
same,TGI,[23],12900 nM
same,GI50,[24],612 nM
same,TGI,[24],3790 nM
same,GI50,[25],282 nM
same,TGI,[25],13100 nM
same,GI50,[26],1620 nM
same,TGI,[26],4220 nM
same,GI50,[27],1260 nM
same,TGI,[27],3480 nM
same,GI50,[28],1510 nM
same,TGI,[28],5150 nM
same,GI50,[29],3660 nM
same,TGI,[29],20100 nM
same,GI50,[30],2180 nM
same,TGI,[30],9560 nM
same,GI50,[31],1710 nM
same,TGI,[31],12500 nM
same,GI50,[32],2300 nM
same,TGI,[32],10300 nM
same,GI50,[33],3120 nM
same,TGI,[33],> 100000 nM
same,GI50,[34],855 nM
same,TGI,[34],2600 nM
same,GI50,[35],2150 nM
same,TGI,[35],10500 nM
same,GI50,[36],544 nM
same,TGI,[36],3660 nM
same,GI50,[37],3390 nM
same,TGI,[37],19000 nM
same,GI50,[38],1450 nM
same,TGI,[38],10500 nM
same,GI50,[39],2180 nM
same,TGI,[39],6070 nM
same,GI50,[40],1320 nM
same,TGI,[40],3840 nM
same,GI50,[41],1640 nM
same,TGI,[41],12600 nM
same,GI50,[42],1090 nM
same,TGI,[42],5430 nM
same,GI50,[43],1010 nM
same,TGI,[43],3620 nM
same,GI50,[44],1390 nM
same,TGI,[44],3770 nM
same,GI50,[45],745 nM
same,TGI,[45],5530 nM
same,GI50,[46],1550 nM
same,TGI,[46],3000 nM
same,GI50,[47],505 nM
same,TGI,[47],4200 nM
same,GI50,[48],2160 nM
same,TGI,[48],12500 nM
same,GI50,[49],2200 nM
same,TGI,[49],7070 nM
same,GI50,[50],277 nM
same,TGI,[50],3410 nM
same,GI50,[51],1770 nM
same,TGI,[51],5560 nM
same,GI50,[52],2380 nM
same,TGI,[52],13100 nM
same,GI50,[53],185 nM
same,TGI,[53],1370 nM
same,GI50,[54],1790 nM
same,TGI,[54],20800 nM
same,GI50,[55],2190 nM
same,TGI,[55],10500 nM
same,GI50,[56],1950 nM
same,TGI,[56],8260 nM
same,GI50,[57],625 nM
same,TGI,[57],2110 nM
same,GI50,[58],604 nM
same,TGI,[58],3650 nM
